# Source: PMC4057235, “Development and Evaluation of Small Peptidomimetic Ligands to Protease-Activated Receptor-2 (PAR2) through the Use of Lipid Tethering” (PLoS ONE, 2014)
# Where two headings read alike, the source gives them in different places. Square brackets hold non-standard residues; d marks the D form. Peptide text beside a SMILES is read from it. * marks the point of attachment. 4Thiazolecarbonyl(2-NH2) = Nc1nc(C(=O)*)cs1; Cha = N[C@@H](CC1CCCCC1)C(=O)O
# What was measured:
# PAR2 = biological target: T1, PAR2 (Homo sapiens, UniProt P55085); test: xCELLigence RTCA in vitro physiological response, 16HBE14o- cells; format: cell-based; details: for EC50: peak Normalized Cell Index within 4 hr
# T1 construct: 16HBE14o- cells on E-plates in growth medium; endogenous in cells; host or cells: 16HBE14o- cells
# T1 sequence (P55085 26-397): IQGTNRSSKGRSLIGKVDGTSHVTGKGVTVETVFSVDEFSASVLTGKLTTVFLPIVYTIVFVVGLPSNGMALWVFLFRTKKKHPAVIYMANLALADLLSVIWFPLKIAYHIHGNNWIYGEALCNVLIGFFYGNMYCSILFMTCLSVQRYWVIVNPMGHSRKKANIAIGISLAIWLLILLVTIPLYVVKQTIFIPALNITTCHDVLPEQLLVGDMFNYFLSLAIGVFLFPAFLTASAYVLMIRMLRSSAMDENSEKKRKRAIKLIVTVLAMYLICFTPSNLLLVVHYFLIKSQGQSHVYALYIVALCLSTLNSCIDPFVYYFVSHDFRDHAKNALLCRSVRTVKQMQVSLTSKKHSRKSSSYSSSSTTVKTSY
# From the text: 16HBE14o- cells, a SV40 transformed human bronchial epithelial cell line, were obtained through the California Pacific Medical Center Research Institute (San Francisco, CA, USA). Cells were maintained and expanded as previously described. Briefly, cell lines were expanded in tissue culture flasks prior to transfer to 96 well E-plates (Roche) for experiments. Flasks and 96 well E-plates were coated initially with a matrix coating solution (88% Lechner and LaVeck basal medium, 10% bovine serum albumin (BSA; from 1 mg/ml stock), 1% bovine collagen type I (from 2.9 mg/ml stock), and 1% human fibronectin (from 1 mg/ml stock solution) and incubated for 2 hr at 37°C, after which the coating solution was removed and allowed to dry for at least 1 hr. 16HBE14o- cells were plated at a concentration of 1×10^5 cells/cm^2 and grown in Eagle’s Minimal Essential Medium supplemented with 10% Fetal Bovine Serum (FBS), 2 mM glutamax, penicillin and streptomycin (growth medium) at 37°C in a 5% CO2 atmosphere. Growth medium was replaced every other day until the cells reached confluence (5–7 days). Cells were then transferred to 96 well E-plates for RTCA, or collagen/fibronectin/BSA coated glass coverslips for Ca^2+ imaging experiments.
# 16HBE14o- cells on E-plates in growth medium and in a 37°C, 5% CO2 incubator were monitored for the establishment for relative impedance overnight every 15 min using the xCELLigence™ Real Time Cell Analyzer (RTCA, Roche), [28], [30]. When cells reached baseline impedance the next day, and prior to the experiment, the RTCA was moved to room air and temperature where full growth medium was replaced with 100μL modified Hank’s Balanced Saline Solution (HBSS) pre-warmed to 37°C. The RTCA was then allowed to come to room temperature (45–60 min) prior to ligand addition. Each well was then supplemented with 100 µL HBSS containing appropriate ligands to measure concentration response ranges in quadruplicate. Additional wells were used for vehicle controls. Relative impedance in each well was monitored every 30 sec over 4 hr. Peak responses, defined as the maximal change in Normalized Cell Index, were used to define maximal response concentrations and physiological EC50s for each ligand.
# MrgprC11 = biological target: T2, MrgprC11 (Mus musculus, UniProt Q8CIP3); test: Ca2+ response in MrgprC11 transfected CHO cells; format: cell-based
# T2 construct: An MrgprC11 cDNA in pcDNA3.1 vector was transfected into CHO cells; expressed in transfected cells; host or cells: CHO cells, transient transfection with Lipofectamine 2000
# T2 sequence (Q8CIP3 1-322): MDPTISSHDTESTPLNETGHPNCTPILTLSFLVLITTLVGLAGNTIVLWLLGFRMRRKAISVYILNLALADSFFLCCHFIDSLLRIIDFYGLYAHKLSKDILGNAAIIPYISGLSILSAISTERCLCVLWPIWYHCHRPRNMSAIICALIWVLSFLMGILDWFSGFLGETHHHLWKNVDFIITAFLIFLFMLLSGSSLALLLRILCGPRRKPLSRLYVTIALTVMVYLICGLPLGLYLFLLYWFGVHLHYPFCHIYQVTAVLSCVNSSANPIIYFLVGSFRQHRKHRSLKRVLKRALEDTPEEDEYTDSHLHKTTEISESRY
# Protocol: CHO cells were cultured in DMEM supplemented with 10% FBS and 1% penicillin and streptomycin at 37°C in a 5% CO2 atmosphere. One day before transfection, CHO cells were plated in a 60 mm cell culture dish at a concentration of 1×10^5 cells/cm^2 and grown without antibiotics. An MrgprC11 cDNA in pcDNA3.1 vector was transfected into CHO cells using Lipofectamine™ 2000 (Invitrogen) prior to transfer to coverslips for experiments. Coverslips were coated with 0.1 mg/ml poly-D-lysine (from 2 mg/ml stock) and incubated for 1 hr at room temperature, after which the coating solution was removed and the coverslips were washed twice with double distilled water. CHO cells were seeded on coverslips at a concentration of 1×10^5 cells/cm^2 6 hr after transfection. Transfected cells were incubated for 24 hr prior to Ca^2+ imaging.
# 16HBE14o- cells or CHO cells were loaded with fura 2-acetomethoxyl ester (CalBiochem or Molecular Probes) for 30 min at room temperature. Cells were washed with HBSS and allowed to sit for at least 20 min prior to digital imaging. For activation and desensitization assay experiments using 16HBE14o- cells, [Ca^2+]i was measured as previously described. Experiments consisted of 20 sec of recording of cells in HBSS to determine resting [Ca^2+]i, followed by a 10 sec wash to introduce ligand and up to 10 min of recording for ligand washes required for desensitization experiments. Briefly, fura-2 fluorescence was observed on an Olympus IX70 microscope with a 40X oil immersion objective after alternating excitation between 340 and 380 nm by a 75 W Xenon lamp linked to a Delta Ram V illuminator (PTI) and a gel optic line. Intracellular Ca^2+ concentration ([Ca^2+]i) for each individual cell in the field of view was calculated by ratiometric analysis of fura-2 fluorescence using equations originally published in [31]. Individual ratios were calculated every sec throughout the experiments. [Ca^2+]i traces over time are averaged [Ca^2+]i of all cells within a field of view (80–120) and are representative of at least 3 experiments. Cells were considered activated by the ligand if their resting [Ca^2+]i was increased above a 200 nM threshold, a 2–4 fold increase above typical resting values. Percent activation graphs are determined from 3–6 experiments for each ligand concentration. Time to threshold in individual cells represent between 200–400 cells from at least 3 experiments at each ligand concentration. Ca^2+ imaging of CHO cells was similar; each ligand concentration tested included at least 3 experiments and a minimum of 200 cells analyzed during each experiment.
# mice = test: In vivo mechanical sensitivity (von Frey) after hindpaw injection; design: species or system mouse; details: 15 pmoles into plantar hindpaw, 1 and 3 hr post-injection
# Protocol: Male ICR mice (Harlan) or PAR2 ^-/- mice and their wild type littermates on a C57Bl/6 background weighing 25–30 grams were used for these studies. Animal protocols were approved by the Institutional Animal Care and Use Committee of The University of Arizona. Compounds were injected into the plantar surface of the hindpaw in a total volume of 25 µL using a 31-gauge needle. Compounds were diluted using sterile saline. Mechanical thresholds were determined using calibrated von Frey filaments (Stoelting Co, Wood Dale, IN) with the up-down method. The experimenter was always blinded to the treatment conditions and animals were randomized such that animals in a single experimental group were never all housed together.
structure (smiles),measurement,setting,value
"CCCCCCCCCCCCCCCCNC(=O)COCC(=O)NCCCOCCOCCOCCCNC(=O)COCC(=O)NCCCOCCOCCOCCCNC(=O)COCC(=O)NCCCOCCOCCOCCCNC(=O)[C@@H](NC(=O)[C@H](CC(C)C)NC(=O)c1csc(N)n1)[C@@H](C)CC [Compound 4, 2at-LI-PEG3-Hdc]",EC50,PAR2,310 nM
"CCCCCCCCCCCCCCCCNC(=O)COCC(=O)NCCCOCCOCCOCCCNC(=O)COCC(=O)NCCCOCCOCCOCCCNC(=O)COCC(=O)NCCCOCCOCCOCCCNC(=O)[C@H](CC(C)C)NC(=O)[C@H](CCCNC(=N)N)NC(=O)CNC(=O)[C@@H](NC(=O)[C@H](CC(C)C)NC(=O)c1csc(N)n1)[C@@H](C)CC [Compound 1, 2at-LIGRL-PEG3-Hdc]",EC50,PAR2,1.7 nM
same,Ca2+ response (% of cells),MrgprC11; 1 nM,0%
same,Ca2+ response (% of cells),MrgprC11; 10 nM,2.5%
same,Ca2+ response (% of cells),MrgprC11; 100 nM,10%
same,Ca2+ response (% of cells),MrgprC11; 1 µM,20%
same,Ca2+ response (% of cells),MrgprC11; 10 µM,88 ± 19%
"CCCCCCCCCCCCCCCCNC(=O)COCC(=O)NCCCOCCOCCOCCCNC(=O)COCC(=O)NCCCOCCOCCOCCCNC(=O)[C@@H](NC(=O)[C@H](CC1CCCCC1)NC(=O)c1csc(N)n1)[C@@H](C)CC [Compound 13, 2at-Cha-I-PEG2-Hdc]",EC50,PAR2,86 nM
"CCCCCCCCCCCCCCCCNC(=O)COCC(=O)NCCCOCCOCCOCCCNC(=O)COCC(=O)NCCCOCCOCCOCCCNC(=O)[C@@H](NC(=O)[C@H](CC1CCCCC1)NC(=O)c1ccno1)[C@@H](C)CC [Compound 14, 5io-Cha-I-PEG2-Hdc]",EC50,PAR2,43 nM
"CCCCCCCCCCCCCCCCNC(=O)COCC(=O)NCCCOCCOCCOCCCNC(=O)COCC(=O)NCCCOCCOCCOCCCNC(=O)COCC(=O)NCCCOCCOCCOCCCNC(=O)C(CC(C)C)NC(=O)c1csc(N)n1 [Compound 5, 2at-L-PEG3-Hdc]",RTCA response / agonism (peak Normalized Cell Index),PAR2,eliminated ligand activity
same,RTCA response / agonism (peak Normalized Cell Index),PAR2; listed as 2at-L-PEG 3-Hdc,eliminated in vitro activity
same,mechanical hypersensitivity (von Frey),mice,inactive
same,mechanical hypersensitivity (von Frey),mice; listed as 2at-L-PEG 3-Hdc,lacked efficacy
"CCCCCCCCCCCCCCCCNC(=O)COCC(=O)NCCCOCCOCCOCCCNC(=O)COCC(=O)NCCCOCCOCCOCCCNC(=O)[C@H](CCCNC(=N)N)NC(=O)CNC(=O)[C@@H](NC(=O)[C@H](CC1CCCCC1)NC(=O)c1ccno1)[C@@H](C)CC [Compound 12, 5io-Cha-IGR-PEG2-Hdc]",EC50,PAR2,6.8 nM
"CCCCCCCCCCCCCCCCNC(=O)COCC(=O)NCCCOCCOCCOCCCNC(=O)COCC(=O)NCCCOCCOCCOCCCNC(=O)COCC(=O)NCCCOCCOCCOCCCNC(=O)c1csc(N)n1 [Compound 6, 2at-PEG3-Hdc]",RTCA response / agonism (peak Normalized Cell Index),PAR2,eliminated ligand activity
same,RTCA response / agonism (peak Normalized Cell Index),PAR2; listed as 2at-PEG 3-Hdc,eliminated in vitro activity
"CCCCCCCCCCCCCCCCNC(=O)COCC(=O)NCCCOCCOCCOCCCNC(=O)COCC(=O)NCCCOCCOCCOCCCNC(=O)COCC(=O)NCCCOCCOCCOCCCNC(=O)CNC(=O)[C@@H](NC(=O)[C@H](CC(C)C)NC(=O)c1csc(N)n1)[C@@H](C)CC [Compound 3, 2at-LIG-PEG3-Hdc]",EC50,PAR2,46 nM
"CC[C@H](C)[C@H](NC(=O)[C@H](CC1CCCCC1)NC(=O)c1csc(N)n1)C(=O)NCC(=O)N[C@@H](CCCNC(=N)N)C(N)=O [Compound 7, 2at-Cha-IGR-NH2] ({4Thiazolecarbonyl(2-NH2)}-[Cha]IGR-NH2)",EC50,PAR2,490 nM
"CC[C@H](C)[C@H](NC(=O)[C@H](CC1CCCCC1)NC(=O)c1csc(N)n1)C(N)=O [Compound 9, 2at-Cha-I-NH2]",EC50,PAR2,1100 nM
"CCCCCCCCCCCCCCCCNC(=O)COCC(=O)NCCCOCCOCCOCCCNC(=O)COCC(=O)NCCCOCCOCCOCCCNC(=O)COCC(=O)NCCCOCCOCCOCCCNC(=O)[C@H](CCCNC(=N)N)NC(=O)CNC(=O)[C@@H](NC(=O)[C@H](CC(C)C)NC(=O)c1csc(N)n1)[C@@H](C)CC [Compound 2, 2at-LIGR-PEG3-Hdc]",EC50,PAR2,2.1 nM
same,Ca2+ response (% of cells),MrgprC11; 100 nM,0.5%
"CCCCCCCCCCCCCCCCNC(=O)COCC(=O)NCCCOCCOCCOCCCNC(=O)COCC(=O)NCCCOCCOCCOCCCNC(=O)[C@H](CCCNC(=N)N)NC(=O)CNC(=O)[C@@H](NC(=O)[C@H](CC1CCCCC1)NC(=O)c1csc(N)n1)[C@@H](C)CC [Compound 11, 2at-Cha-IGR-PEG2-Hdc]",EC50,PAR2,16 nM
